pIC50: −log10 of the molar value.
Columns and labels:
KRAS G12S = target: T1, KRAS G12S (Homo sapiens, UniProt P01116, G12S); assay: HTRF assay, KRAS G12S interaction with SOS1; format: biochemical; settings: bins <500 nM / 500 nM to 1000 nM, read-out: Inhibition of KRAS G12S (IC50)
T1 construct: made in house; host or cells: E. coli, e.g. BL21 (DE3)

KRAS WT = target: T2, KRAS WT (Homo sapiens, UniProt P01116); assay: HTRF assay, wildtype KRAS interaction with SOS1; format: biochemical; settings: bins <500 nM / 500 nM to 1000 nM, read-out: Inhibition of KRAS WT (IC50)
T2 construct: made in house; host or cells: E. coli, e.g. BL21 (DE3)
T2 sequence (P01116 1-188 isoform P01116-2): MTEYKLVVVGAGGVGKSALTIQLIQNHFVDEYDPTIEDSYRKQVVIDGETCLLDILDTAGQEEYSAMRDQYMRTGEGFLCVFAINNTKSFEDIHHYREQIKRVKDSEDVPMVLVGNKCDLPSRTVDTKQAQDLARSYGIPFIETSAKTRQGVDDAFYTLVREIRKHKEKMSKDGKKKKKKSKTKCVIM

KRAS G12D = target: T3, KRAS G12D (Homo sapiens, UniProt P01116, G12D); assay: HTRF assay, KRAS G12D interaction with SOS1; format: biochemical; settings: bins <500 nM / 500 nM to 1000 nM, read-out: Inhibition of KRAS G12D (IC50)
T3 construct: made in house; host or cells: E. coli, e.g. BL21 (DE3)
T3 sequence (P01116 1-188 isoform P01116-2 G12D): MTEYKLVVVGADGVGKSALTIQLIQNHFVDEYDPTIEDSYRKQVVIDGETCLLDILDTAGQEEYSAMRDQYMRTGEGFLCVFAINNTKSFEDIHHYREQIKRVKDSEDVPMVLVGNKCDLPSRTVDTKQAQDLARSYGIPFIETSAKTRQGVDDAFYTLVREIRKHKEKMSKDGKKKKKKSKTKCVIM

MiaPaca2 cells = assay: Ras cellular assay, growth of cells with K-Ras G12C mutation; format: cell-based; settings: Homo sapiens, MIA PaCa-2; cell proliferation assay; bins ≤500 nM / >500 nM; read-out: Inhibition of MiaPaca2 Cells (IC50)
Method: For example, this assay can be also used to assess selective growth inhibition of a mutant Ras protein relative to a wildtype or different mutant Ras protein.
MIA PaCa-2 (ATCC CRL-1420) and NCI-H1792 (ATCC CRL-5895) cell lines comprise a G12C mutation and can be used to assess Ras cellular signaling in vitro, e.g., in response to an inhibitor compound of the present disclosure. […] MIA PaCa-2 culture medium is prepared with DMEM/Ham's F12 (e.g., with stable glutamine, 10% FCS, and 2.5% horse serum. NCI-H1792 culture medium is prepared with RPMI 1640 (e.g., with stable glutamine) and 10% FCS.
On a first day (e.g., Day 1), Softagar (Select Agar, Invitrogen, 3% in ddH2O autoclaved) is boiled and tempered at 48° C. Appropriate culture medium (i.e., medium) is tempered to 37° C. Agar (3%) is diluted 1:5 in medium (=0.6%) and plated into 96 well plates (Corning, #3904), then incubated at room temperature for agar solidification. A 3% agar is diluted to 0.25% in medium (1:12 dilution) and tempered at 42° C. Cells are trypsinized, counted, and tempered at 37° C. The cells (e.g., MIA PaCa-2 at about 125-150 cells, NCI-H1792 at about 1000 cells) are resuspended in […] 0.25% Agar and plated, followed by incubation at room temperature for agar solidification. The wells are overlaid with […] of the medium. Sister wells in a separate plate are plated for time zero determination. All plates are incubated overnight at 37° C. and 5% CO2.
On a second day (e.g., Day 2), time zero values are measured. A […] volume of Cell Titer 96 Aqueous Solution (Promega) is added to each well and incubated in the dark at 37° C. and 5% CO2. Absorption can be measured at 490 nm and reference wavelength 660 nm. DMSO-prediluted test compounds are added to wells of interest, e.g., with HP Dispenser, to one or more desired concentrations (e.g., a final DMSO concentration of 0.3%).
On a tenth day (e.g., Day 10), absorption by wells treated with the test compounds and control wells are measured with, for example, Cell Titer 96 AQueous and analyzed in comparison to the time zero measurements. The IC50 values are determined using the four parameter fit. The resulting IC50 value is a measurement of the ability of the test compound to reduce cell growth of Ras-driven cells (e.g., tumor cell lines) in vitro and/or in vivo.

KRAS G12V = target: T4, KRAS G12V (Homo sapiens, UniProt P01116, G12V); assay: HTRF assay, KRAS G12V interaction with SOS1; format: biochemical; settings: bins <500 nM / 500 nM to 1000 nM, read-out: Inhibition of KRAS G12V (IC50)
T4 construct: made in house; host or cells: E. coli, e.g. BL21 (DE3)
T4 sequence (P01116 1-188 isoform P01116-2 G12V): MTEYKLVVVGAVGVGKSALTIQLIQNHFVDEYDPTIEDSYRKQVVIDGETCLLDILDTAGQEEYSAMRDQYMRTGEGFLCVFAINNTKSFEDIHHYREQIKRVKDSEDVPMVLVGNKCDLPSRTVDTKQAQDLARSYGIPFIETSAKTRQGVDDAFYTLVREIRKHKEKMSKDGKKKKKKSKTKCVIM

T1 sequence (P01116 1-188 isoform P01116-2 G12S): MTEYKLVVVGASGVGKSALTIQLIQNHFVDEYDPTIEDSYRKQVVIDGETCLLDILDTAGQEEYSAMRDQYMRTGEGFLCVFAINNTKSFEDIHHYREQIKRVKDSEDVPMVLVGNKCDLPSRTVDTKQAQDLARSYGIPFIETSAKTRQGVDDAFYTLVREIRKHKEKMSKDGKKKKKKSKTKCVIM

Row | pIC50 (KRAS G12S) | pIC50 (KRAS WT) | pIC50 (KRAS G12D) | pIC50 (MiaPaca2 cells) | pIC50 (KRAS G12V) | SMILES
1 | > 6.30 | > 6.30 | > 6.30 | ≥ 6.30 | > 6.30 | CCN(c1nc(OC[C@@]23CCCN2C[C@H](F)C3)nc2c(F)c(-c3ccc(F)c4sc(N)c(C#N)c34)c(Cl)cc12)[C@@H]1CCN(C(=O)n2ccnc2C#N)[C@@H]1C [Compound 188, 1-((2R,3R)-3-((7-(2-amino-3-cyano-7-fluorobenzo[b]thiophen-4-yl)-6-chloro-8-fluoro-2-(((2R,7aS)-2-fluorotetrahydro-1H-pyrrolizin-7a(5H)-yl)methoxy)quinazolin-4-yl)(ethyl)amino)-2-methylpyrrolidine-1-carbonyl)-1H-imidazole-2-carbonitrile]
2 | > 6.30 | > 6.30 | > 6.30 | ≥ 6.30 | > 6.30 | CCN(c1nc(OC[C@@]23CCCN2C[C@H](F)C3)nc2c(F)c(-c3ccc(F)c4sc(N)c(C#N)c34)c(C(F)(F)F)cc12)[C@@H]1CCN(C(=O)n2cc(C)nc2C)[C@@H]1C (atropisomer, axis not shown; (aS)) [Compound 114, (S)-2-amino-4-(4-(((2R,3R)-1-(2,4-dimethyl-1H-imidazole-1-carbonyl)-2-methylpyrrolidin-3-yl)(ethyl)amino)-8-fluoro-2-(((2R,7aS)-2-fluorotetrahydro-1H-pyrrolizin-7a(5H)-yl)methoxy)-6-(trifluoromethyl)quinazolin-7-yl)-7-fluorobenzo[b]thiophene-3-carbonitrile]
3 | > 6.30 | > 6.30 | > 6.30 | ≥ 6.30 | > 6.30 | Cc1nccn1C(=O)N1CC2(CCCCN(c3nc(OC[C@@]45CCCN4C[C@H](F)C5)nc4c(F)c(-c5ccc(F)c6sc(N)c(C#N)c56)c(Cl)cc34)C2)C1 [Compound 154, 2-amino-4-(6-chloro-8-fluoro-2-(((2R,7aS)-2-fluorotetrahydro-1H-pyrrolizin-7a(5H)-yl)methoxy)-4-(2-(2-methyl-1H-imidazole-1-carbonyl)-2,6-diazaspiro[3.6]decan-6-yl)quinazolin-7-yl)-7-fluorobenzo[b]thiophene-3-carbonitrile]
4 | > 6.30 | > 6.30 | > 6.30 | ≥ 6.30 | > 6.30 | Cc1c(C#N)ncn1C(=O)N1C[C@]2(CCCCN(c3nc(OC[C@@]45CCCN4C[C@H](F)C5)nc4c(F)c(-c5ccc(F)c6sc(N)c(C#N)c56)c(Cl)cc34)C2)[C@H]1C [Compound 161, 1-((1R,4R)-6-(7-(2-amino-3-cyano-7-fluorobenzo[b]thiophen-4-yl)-6-chloro-8-fluoro-2-(((2R,7aS)-2-fluorotetrahydro-1H-pyrrolizin-7a(5H)-yl)methoxy)quinazolin-4-yl)-1-methyl-2,6-diazaspiro[3.6]decane-2-carbonyl)-5-methyl-1H-imidazole-4-carbonitrile]
5 | > 6.30 | > 6.30 | > 6.30 | ≥ 6.30 | > 6.30 | CCN(c1nc(OC[C@@]23CCCN2C[C@H](F)C3)nc2c(F)c(-c3ccc(F)c4sc(N)c(C#N)c34)c(Cl)cc12)[C@@H]1CCN(C(=O)n2ccnc2C)[C@@H]1C [Compound 163, 2-amino-4-(6-chloro-4-(ethyl((2R,3R)-2-methyl-1-(2-methyl-1H-imidazole-1-carbonyl)pyrrolidin-3-yl)amino)-8-fluoro-2-(((2R,7aS)-2-fluorotetrahydro-1H-pyrrolizin-7a(5H)-yl)methoxy)quinazolin-7-yl)-7-fluorobenzo[b]thiophene-3-carbonitrile]
6 | > 6.30 | > 6.30 | > 6.30 | ≥ 6.30 | > 6.30 | C[C@@H]1[C@H](N(C)c2nc(OC[C@@]34CCCN3C[C@H](F)C4)nc3c(F)c(-c4ccc(F)c5sc(N)c(C#N)c45)c(Cl)cc23)CCN1C(=O)n1ccnc1Cl [Compound 178, 2-amino-4-(6-chloro-4-(((2R,3R)-1-(2-chloro-1H-imidazole-1-carbonyl)-2-methylpyrrolidin-3-yl)(methyl)amino)-8-fluoro-2-(((2R,7aS)-2-fluorotetrahydro-1H-pyrrolizin-7a(5H)-yl)methoxy)quinazolin-7-yl)-7-fluorobenzo[b]thiophene-3-carbonitrile]
7 | > 6.30 | > 6.30 | > 6.30 | ≥ 6.30 | > 6.30 | CN(c1nc(OC[C@@]23CCCN2C[C@H](F)C3)nc2c(F)c(-c3ccc(F)c4sc(N)c(C#N)c34)c(Cl)cc12)[C@H]1CCN(C(=O)n2ccnc2)C1 [Compound 218, 4-(4-(((S)-1-(1H-imidazole-1-carbonyl)pyrrolidin-3-yl)(methyl)amino)-6-chloro-8-fluoro-2-(((2R,7aS)-2-fluorotetrahydro-1H-pyrrolizin-7a(5H)-yl)methoxy)quinazolin-7-yl)-2-amino-7-fluorobenzo[b]thiophene-3-carbonitrile]
8 | > 6.30 | > 6.30 | > 6.30 | ≥ 6.30 | > 6.30 | C[C@@H]1[C@H](N(C)c2nc(OC[C@@]34CCCN3C[C@H](F)C4)nc3c(F)c(-c4ccc(F)c5sc(N)c(C#N)c45)c(Cl)cc23)CCN1C(=O)n1cnc(C#N)c1 [Compound 199, 1-((2R,3R)-3-((7-(2-amino-3-cyano-7-fluorobenzo[b]thiophen-4-yl)-6-chloro-8-fluoro-2-(((2R,7aS)-2-fluorotetrahydro-1H-pyrrolizin-7a(5H)-yl)methoxy)quinazolin-4-yl)(methyl)amino)-2-methylpyrrolidine-1-carbonyl)-1H-imidazole-4-carbonitrile]
9 | > 6.30 | > 6.30 | > 6.30 | ≥ 6.30 | > 6.30 | CCN(c1nc(OC[C@@]23CCCN2C[C@H](F)C3)nc2c(F)c(-c3ccc(F)c4sc(N)c(C#N)c34)c(C3CC3)cc12)[C@@H]1CCN(C(=O)n2cnc(C)c2C)[C@@H]1C [Compound 175, 2-amino-4-(6-cyclopropyl-4-(((2R,3R)-1-(4,5-dimethyl-1H-imidazole-1-carbonyl)-2-methylpyrrolidin-3-yl)(ethyl)amino)-8-fluoro-2-(((2R,7aS)-2-fluorotetrahydro-1H-pyrrolizin-7a(5H)-yl)methoxy)quinazolin-7-yl)-7-fluorobenzo[b]thiophene-3-carbonitrile]
10 | > 6.30 | > 6.30 | > 6.30 | ≥ 6.30 | > 6.30 | Cc1nc(C)n(C(=O)N2CC[C@@H](N(C)c3nc(OC[C@@]45CCCN4C[C@H](F)C5)nc4c(F)c(-c5ccc(F)c6sc(N)c(C#N)c56)c(Cl)cc34)[C@H]2C)c1C [Compound 127, 2-amino-4-(6-chloro-8-fluoro-2-(((2R,7aS)-2-fluorotetrahydro-1H-pyrrolizin-7a(5H)-yl)methoxy)-4-(methyl((2R,3R)-2-methyl-1-(2,4,5-trimethyl-1H-imidazole-1-carbonyl)pyrrolidin-3-yl)amino)quinazolin-7-yl)-7-fluorobenzo[b]thiophene-3-carbonitrile]

From patent US20260217735A1, “HETEROCYCLES AND USES THEREOF” (Kumquat Biosciences Inc., priority 2023, published 2026)
